Experimental data as given in US6995170B1, “Semi-hydrochloride of 8-cyano-1-cyclopropyl-7-(1S,6S-2,8-diazabicyclo[4.3.0]nonan-8-yl)-6-fluoro-1, 4-dihydro-4-oxo-3-quinolinecarboxylic acid” (Bayer Aktiengesellschaft, priority 1998, dated 2006).
Counter-ions that a name gives are not always drawn.

Assay: Solubility in water (strength of solutions that can be prepared)

Row | Structure (SMILES) | strength of solutions in water that can be prepared (solubility in water)
1 | N#Cc1c(N2C[C@@H]3CCCN[C@@H]3C2)c(F)cc2c(=O)c(C(=O)O)cn(C3CC3)c12 [CCDC hydrochloride] | approximately 2.8 % (w/w)
2 | N#Cc1c(N2C[C@@H]3CCCN[C@@H]3C2)c(F)cc2c(=O)c(C(=O)O)cn(C3CC3)c12 [CCDC, 8-Cyano-1-cyclopropyl-7-(1S,6S-2,8-diazabicyclo[4.3.0]nonan-8-yl)-6-fluoro-1,4-dihydro-4-oxo-3-quinolinecarboxylic acid] | about 0.02 % (w/w)
